According to patent publication US20250223268A1, “4-Methylsulfonylbenzamide Compound, Preparation Method, Herbicidal Composition And Use” (Jiangsu Flag Chemical Industry Co., Ltd., priority 2022, published 2025):

Key:
Test in all cases: Greenhouse herbicidal activity assay, post-emergence
Type in all cases: in vivo
Conditions in all cases: Post-emergence test, rate 150 g a.i./hm^2, grade by fresh weight inhibition rate
[1] = system: Digitaria sanguinalis
Method in brief: (§1)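 Foliar spray at 3-6 leaves; pot-grown in nutrient soil in growth chamber; air-dried post-spray. Read-out at 14-21 d: fresh weight inhibition, graded A (≥80% to 100%) down to E (<20%); NT = not tested.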

[2] = system: Eclipta prostrata
Method in brief: as §1

[3] = system: Leptochloa chinensis
Method in brief: as §1

[4] = system: Echinochloa crusgalli
Method in brief: as §1

[5] = system: Cyperus iria
Method in brief: as §1

SMILES | Control efficacy grade, Digitaria sanguinalis [1] | Control efficacy grade, Eclipta prostrata [2] | Control efficacy grade, Leptochloa chinensis [3] | Control efficacy grade, Echinochloa crusgalli [4] | Control efficacy grade, Cyperus iria [5] | pest or weed control at 150 g/ha ([1]; Digitaria sanguinalis, read-out: Control efficacy grade, Digitaria sanguinalis) [%] | pest or weed control at 150 g/ha ([2]; Eclipta prostrata, read-out: Control efficacy grade, Eclipta prostrata) [%] | pest or weed control at 150 g/ha ([3]; Dinebra chinensis, read-out: Control efficacy grade, Leptochloa chinensis) [%] | pest or weed control at 150 g/ha ([5]; Cyperus iria, read-out: Control efficacy grade, Cyperus iria) [%] | pest or weed control at 150 g/ha ([4]; Echinochloa crus-galli, read-out: Control efficacy grade, Echinochloa crusgalli) [%]
CCC(C)[S+]([O-])c1c(S(C)(=O)=O)ccc(C(=O)Nc2nnnn2C)c1Cl (mixture of isomers) [Compound 1-19] | A (Fresh weight inhibition rate≥80% to 100%) | A (Fresh weight inhibition rate≥80% to 100%) | A (Fresh weight inhibition rate≥80% to 100%) | A (Fresh weight inhibition rate≥80% to 100%) | – | – | – | – | – | –
CCC(C)[S+]([O-])c1c(S(C)(=O)=O)ccc(C(=O)Nc2ncnn2C)c1Cl (mixture of isomers) [Compound 2-19] | A (Fresh weight inhibition rate≥80% to 100%) | A (Fresh weight inhibition rate≥80% to 100%) | A (Fresh weight inhibition rate≥80% to 100%) | A (Fresh weight inhibition rate≥80% to 100%) | A (Fresh weight inhibition rate≥80% to 100%) | – | – | – | – | –
CCC(C)[S+]([O-])c1c(S(C)(=O)=O)ccc(C(=O)Nc2nnc(C)o2)c1Cl (mixture of isomers) [Compound 3-19] | A (Fresh weight inhibition rate≥80% to 100%) | A (Fresh weight inhibition rate≥80% to 100%) | A (Fresh weight inhibition rate≥80% to 100%) | A (Fresh weight inhibition rate≥80% to 100%) | A (Fresh weight inhibition rate≥80% to 100%) | – | – | – | – | –
CCC(C)[S+]([O-])c1c(S(C)(=O)=O)ccc(C(=O)Nc2nnco2)c1Cl (mixture of isomers) [Compound 3-285] | A (Fresh weight inhibition rate≥80% to 100%) | A (Fresh weight inhibition rate≥80% to 100%) | A (Fresh weight inhibition rate≥80% to 100%) | A (Fresh weight inhibition rate≥80% to 100%) | A (Fresh weight inhibition rate≥80% to 100%) | – | – | – | – | –
CCc1nnc(NC(=O)c2ccc(S(C)(=O)=O)c([S+]([O-])C(C)CC)c2Cl)o1 (mixture of isomers) [Compound 3-401] | A (Fresh weight inhibition rate≥80% to 100%) | A (Fresh weight inhibition rate≥80% to 100%) | A (Fresh weight inhibition rate≥80% to 100%) | A (Fresh weight inhibition rate≥80% to 100%) | A (Fresh weight inhibition rate≥80% to 100%) | – | – | – | – | –
CCC(C)[S+]([O-])c1c(S(C)(=O)=O)ccc(C(=O)Nc2nnc(C3CC3)o2)c1Cl (mixture of isomers) [Compound 3-633] | A (Fresh weight inhibition rate≥80% to 100%) | A (Fresh weight inhibition rate≥80% to 100%) | A (Fresh weight inhibition rate≥80% to 100%) | A (Fresh weight inhibition rate≥80% to 100%) | A (Fresh weight inhibition rate≥80% to 100%) | – | – | – | – | –
CCC[S+]([O-])c1c(S(C)(=O)=O)ccc(C(=O)Nc2nnnn2C)c1Cl (racemic) [Compound 1-2, 2-chloro-N-(1-methyl-1H-tetrazol-5-yl)-4-(methylsulfonyl)-3-(propylsulfinyl)benzamide] | – | – | – | – | – | 80 to 100 | 80 to 100 | 80 to 100 | 80 to 100 | 80 to 100
CC(C)[S+]([O-])c1c(S(C)(=O)=O)ccc(C(=O)Nc2nnnn2C)c1Cl (racemic) [Compound 1-7] | A (Fresh weight inhibition rate≥80% to 100%) | A (Fresh weight inhibition rate≥80% to 100%) | A (Fresh weight inhibition rate≥80% to 100%) | A (Fresh weight inhibition rate≥80% to 100%) | A (Fresh weight inhibition rate≥80% to 100%) | – | – | – | – | –
CCCC[S+]([O-])c1c(S(C)(=O)=O)ccc(C(=O)Nc2nnnn2C)c1Cl (racemic) [Compound 1-12] | A (Fresh weight inhibition rate≥80% to 100%) | A (Fresh weight inhibition rate≥80% to 100%) | A (Fresh weight inhibition rate≥80% to 100%) | A (Fresh weight inhibition rate≥80% to 100%) | A (Fresh weight inhibition rate≥80% to 100%) | – | – | – | – | –
Cn1nnnc1NC(=O)c1ccc(S(C)(=O)=O)c([S+]([O-])CC2CC2)c1Cl (racemic) [Compound 1-28] | A (Fresh weight inhibition rate≥80% to 100%) | A (Fresh weight inhibition rate≥80% to 100%) | A (Fresh weight inhibition rate≥80% to 100%) | A (Fresh weight inhibition rate≥80% to 100%) | A (Fresh weight inhibition rate≥80% to 100%) | – | – | – | – | –
Cn1nnnc1NC(=O)c1ccc(S(C)(=O)=O)c([S+]([O-])C2CC2)c1Cl (racemic) [Compound 1-33] | A (Fresh weight inhibition rate≥80% to 100%) | A (Fresh weight inhibition rate≥80% to 100%) | A (Fresh weight inhibition rate≥80% to 100%) | A (Fresh weight inhibition rate≥80% to 100%) | A (Fresh weight inhibition rate≥80% to 100%) | – | – | – | – | –
Cn1nnnc1NC(=O)c1ccc(S(C)(=O)=O)c([S+]([O-])C2CCC2)c1Cl (racemic) [Compound 1-38] | A (Fresh weight inhibition rate≥80% to 100%) | A (Fresh weight inhibition rate≥80% to 100%) | B (Fresh weight inhibition rate≥260% to <80%) | A (Fresh weight inhibition rate≥80% to 100%) | A (Fresh weight inhibition rate≥80% to 100%) | – | – | – | – | –
Cn1nnnc1NC(=O)c1ccc(S(C)(=O)=O)c([S+]([O-])C2CCCCC2)c1Cl (racemic) [Compound 1-48] | A (Fresh weight inhibition rate≥80% to 100%) | A (Fresh weight inhibition rate≥80% to 100%) | A (Fresh weight inhibition rate≥80% to 100%) | A (Fresh weight inhibition rate≥80% to 100%) | A (Fresh weight inhibition rate≥80% to 100%) | – | – | – | – | –
Cn1nnnc1NC(=O)c1ccc(S(C)(=O)=O)c([S+]([O-])CC(F)F)c1Cl (racemic) [Compound 1-58] | A (Fresh weight inhibition rate≥80% to 100%) | A (Fresh weight inhibition rate≥80% to 100%) | A (Fresh weight inhibition rate≥80% to 100%) | A (Fresh weight inhibition rate≥80% to 100%) | B (Fresh weight inhibition rate≥260% to <80%) | – | – | – | – | –
Cn1nnnc1NC(=O)c1ccc(S(C)(=O)=O)c([S+]([O-])CC#N)c1Cl (racemic) [Compound 1-63] | B (Fresh weight inhibition rate≥260% to <80%) | A (Fresh weight inhibition rate≥80% to 100%) | A (Fresh weight inhibition rate≥80% to 100%) | A (Fresh weight inhibition rate≥80% to 100%) | A (Fresh weight inhibition rate≥80% to 100%) | – | – | – | – | –
C=CC[S+]([O-])c1c(S(C)(=O)=O)ccc(C(=O)Nc2nnnn2C)c1Cl (racemic) [Compound 1-68] | A (Fresh weight inhibition rate≥80% to 100%) | A (Fresh weight inhibition rate≥80% to 100%) | A (Fresh weight inhibition rate≥80% to 100%) | A (Fresh weight inhibition rate≥80% to 100%) | A (Fresh weight inhibition rate≥80% to 100%) | – | – | – | – | –
Cc1nonc1NC(=O)c1ccc(S(C)(=O)=O)c([S+]([O-])C(C)C)c1Cl (racemic) [Compound 4-7] | B (Fresh weight inhibition rate≥260% to <80%) | A (Fresh weight inhibition rate≥80% to 100%) | A (Fresh weight inhibition rate≥80% to 100%) | A (Fresh weight inhibition rate≥80% to 100%) | – | – | – | – | – | –
Cn1ncnc1NC(=O)c1ccc(S(C)(=O)=O)c(SC2CC2)c1Cl [Compound 2-32] | A (Fresh weight inhibition rate≥80% to 100%) | A (Fresh weight inhibition rate≥80% to 100%) | A (Fresh weight inhibition rate≥80% to 100%) | A (Fresh weight inhibition rate≥80% to 100%) | – | – | – | – | – | –
Cc1nonc1NC(=O)c1ccc(S(C)(=O)=O)c(S(=O)(=O)C(C)C)c1Cl [Compound 4-10] | B (Fresh weight inhibition rate≥260% to <80%) | – | A (Fresh weight inhibition rate≥80% to 100%) | A (Fresh weight inhibition rate≥80% to 100%) | A (Fresh weight inhibition rate≥80% to 100%) | – | – | – | – | –
